Assay results from patent publication US11286268B1, “EIF4E-inhibiting compounds and methods” (EFFECTOR THERAPEUTICS, INC., priority 2019, dated 2022).
Read-outs that look alike come from different tables or passages of the source.

Biological target: recombinant eIF4E (Homo sapiens (Human), UniProt P06730)
Test: Fluorescence polarization competition assay for eIF4E binding potency
Experimental: Compounds were screened for eIF4E binding potency using a fluorescence polarization competition assay. All binding reactions were performed in fluorescence polarization buffer (FPB) containing 20 mM Tris pH 7.5, 100 mM NaCl, 1 mM DTT, and 0.02% Tween-20. Final binding reactions contained 75 nM recombinant eIF4E (Beryllium, custom order), 20 nM EDA-m^7GDP-ATTO-550 (Jena Bioscience, NU-827-550) and varying concentrations of the inhibitory compound of interest. Final DMSO concentration in each reaction was 1%.
eIF4E protein was pre-incubated with EDA-m^7GDP-ATTO-550 in FPB at 2× concentrations for 5 minutes prior to the addition of compounds. Compounds (100×) were prepared using 3-fold serial dilutions in 100% DMSO, and subsequently diluted 1:50 in FPB to produce 2× stocks. 50 μl of 2× eIF4E/EDA-m^7GDP-ATTO-550 were transferred to the wells of a 96-well half-area black flat bottom polystyrene plate. 50 μl of 2× test compound were added, and binding reactions were allowed to equilibrate for 30 minutes at room temperature while protected from light. The fluorescent polarization signal was detected using a Victor 2 multi-label counter (Perkin Elmer) and the concentration necessary to achieve inhibition of eIF4E/EDA-m^7GDP-ATTO-550 binding by 50% (IC50) was calculated using data from an 8-point compound dilution series.
In Table 4A, IC50 values of less than 0.05 μM are labelled as “+++”, from 1 to 0.05 μM are labelled as “++”, and greater than 1 μM are labelled as “+”. ND=not determined.

[1] = fluorescence polarization competition, 75 nM recombinant eIF4E, 20 nM EDA-m7GDP-ATTO-550, IC50 class, read-out: elF4E FP
[2] = inhibition of eIF4E/EDA-m7GDP-ATTO-550 binding by 50%, Table 4B calculated values, read-out: IC50

Chain of recombinant eIF4E (P06730 whole entry): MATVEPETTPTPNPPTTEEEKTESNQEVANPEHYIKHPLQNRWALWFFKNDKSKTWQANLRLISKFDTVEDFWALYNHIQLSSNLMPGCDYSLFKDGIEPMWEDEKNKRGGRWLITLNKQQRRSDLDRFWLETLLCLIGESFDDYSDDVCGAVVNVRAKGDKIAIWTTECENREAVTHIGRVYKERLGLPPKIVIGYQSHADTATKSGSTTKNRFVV

| Structure (SMILES) | IC50 [1] [nM] | IC50 [2] [nM] |
| --- | --- | --- |
| N#Cc1cc2c(=O)n(CCOc3ccc(Cl)cc3-c3ncc(C(=O)O)s3)cnc2cn1 [compound 52] | > 1000 | > 3000 |
| N#Cc1cc2c(=O)n(CCOc3ccc(Cl)cc3-c3cnc(C(=O)O)s3)cnc2cn1 [compound 54] | > 1000 | 2280 |
| Cn1ccc2c(=O)n(CCOc3ccc(Cl)cc3-c3cccc(C(=O)O)c3)cnc21 [compound 68] | > 1000 | 64300 |
| Cn1ccc2ncn(CCOc3ccc(Cl)cc3-c3cccc(C(=O)O)c3)c(=O)c21 [compound 69] | > 1000 | 26800 |
| Cc1nc2ccccc2c(=O)n1CCOc1ccc(Cl)cc1-c1cccc(C(=O)O)c1 [compound 72] | > 1000 | 3100 |
| N#Cc1cccc2c(=O)n(CCOc3ccc(Cl)cc3-c3cccc(C(=O)O)c3)cnc12 [compound 75] | > 1000 | 1400 |
| O=C(O)c1cccc(-c2cc(Cl)ccc2OCCn2cnc3c(F)cccc3c2=O)c1 [compound 76] | > 1000 | 2300 |
| O=C(O)c1cccc(-c2cc(Cl)ccc2OCCn2cnc3cc(F)c(F)cc3c2=O)c1 [compound 77] | > 1000 | 1440 |
| O=C(O)c1cccc(-c2cc(Cl)ccc2OCCn2cnc3cc(F)cc(F)c3c2=O)c1 [compound 78] | > 1000 | 1630 |
| N#Cc1cc2c(=O)n(CCOc3ccc(Cl)cc3-c3ccc(C(=O)O)o3)cnc2cn1 [compound 79] | > 1000 | 1650 |
| N#Cc1cc2c(=O)n(CCOc3ccc(Cl)cc3-c3nc(C(=O)O)cs3)cnc2cn1 [compound 81] | > 1000 | 4220 |
| Cn1cc(-c2cc(Cl)ccc2OCCn2cnc3cnc(C#N)cc3c2=O)cc1C(=O)O [compound 82] | > 1000 | 1660 |
| N#Cc1cc2c(=O)n(CCOc3ccc(Cl)cc3-c3cc(C(=O)O)cs3)cnc2cn1 [compound 83] | > 1000 | 2560 |
| Cn1nc(C(=O)O)cc1-c1cc(Cl)ccc1OCCn1cnc2cnc(C#N)cc2c1=O [compound 84] | > 1000 | 1250 |
| N#Cc1cc2c(=O)n(CCOc3ccc(Cl)cc3-c3cncc(C(=O)O)n3)cnc2cn1 [compound 85] | > 1000 | 1850 |
| N#Cc1cc2c(=O)n(CCOc3ccc(Cl)cc3-c3cc(C(=O)O)c(F)cc3F)cnc2cn1 [compound 86] | > 1000 | 49700 |
| COc1cc(-c2cc(Cl)ccc2OCCn2cnc3cnc(C#N)cc3c2=O)cc(C(=O)O)n1 [compound 87] | > 1000 | 1160 |
| CNc1ncc(-c2cc(Cl)ccc2OCCn2cnc3cnc(C#N)cc3c2=O)nc1C(=O)O [compound 88] | > 1000 | 1680 |
| N#Cc1cc2c(=O)n(CCOc3ccc(Cl)cc3-c3cc(C(=O)O)cc(F)c3F)cnc2cn1 [compound 89] | > 1000 | > 3000 |

| Structure (SMILES) | IC50 [1] [nM] | IC50 [2] [nM] |
| --- | --- | --- |
| COc1ncc(-c2cc(Cl)ccc2OCCn2cnc3cnc(C#N)cc3c2=O)nc1C(=O)O [compound 90] | > 1000 | 1230 |
| N#Cc1cc2c(=O)n(CCOc3ccc(Cl)cc3-c3cc(C(=O)O)ccc3C3CC3)cnc2cn1 [compound 92] | > 1000 | > 3000 |
| N#Cc1cc(C(=O)O)cc(-c2cc(Cl)ccc2OCCn2cnc3cnc(C#N)cc3c2=O)c1 [compound 93] | > 1000 | 1400 |
| N#Cc1cc2c(=O)n(CCOc3ccc(Cl)cc3-c3ccc(C#N)c(C(=O)O)c3)cnc2cn1 [compound 94] | > 1000 | 1420 |
| CSc1cc(C(=O)O)cc(-c2cc(Cl)ccc2OCCn2cnc3cnc(C#N)cc3c2=O)c1 [compound 95] | > 1000 | 2860 |
| N#Cc1cc2c(=O)n(CCOc3ccc(Cl)cc3-c3cc4c(c(C(=O)O)c3)OCO4)cnc2cn1 [compound 96] | > 1000 | 2100 |
| COc1cc(F)c(C(=O)O)cc1-c1cc(Cl)ccc1OCCn1cnc2cnc(C#N)cc2c1=O [compound 97] | > 1000 | > 3000 |
| CSc1ncc(-c2cc(Cl)ccc2OCCn2cnc3cnc(C#N)cc3c2=O)nc1C(=O)O [compound 98] | 50 to 1000 | 564 |
| N#Cc1cc2c(=O)n(CCOc3ccc(Cl)cc3-c3cc(C(=O)O)c4ccccc4n3)cnc2cn1 [compound 99] | > 1000 | 3420 |
| N#Cc1cc2c(=O)n(CCOc3ccc(Cl)cc3-c3cc(C(=O)O)c4ncccc4c3)cnc2cn1 [compound 100] | > 1000 | 3480 |
| N#Cc1cc2c(=O)n(CCOc3ccc(Cl)cc3-c3cc(C(=O)O)c(F)c(F)c3F)cnc2cn1 [compound 101] | > 1000 | 43800 |
| Cn1cc2c(C(=O)O)cc(-c3cc(Cl)ccc3OCCn3cnc4cnc(C#N)cc4c3=O)cc2n1 [compound 102] | > 1000 | 4820 |
| CC(=O)Nc1ccc(-c2cc(Cl)ccc2OCCn2cnc3cnc(C#N)cc3c2=O)cc1C(=O)O [compound 103] | 50 to 1000 | 747 |
| N#Cc1cc2c(=O)n(CCOc3ccc(Cl)cc3-c3cc4c(c(C(=O)O)c3)OCC4)cnc2cn1 [compound 104] | 50 to 1000 | 586 |
| CC(C)(C)c1cc(C(=O)O)cc(-c2cc(Cl)ccc2OCCn2cnc3cnc(C#N)cc3c2=O)c1 [compound 105] | > 1000 | > 3000 |
| N#Cc1cc2c(=O)n(CCOc3ccc(Cl)cc3-c3cc(CCO)cc(C(=O)O)c3)cnc2cn1 [compound 106] | > 1000 | 1380 |
| COc1cc(-c2cc(Cl)ccc2OCCn2cnc3cnc(C#N)cc3c2=O)cc(C(=O)O)c1OC [compound 107] | > 1000 | 3820 |
| COc1c(Cl)cc(-c2cc(Cl)ccc2OCCn2cnc3cnc(C#N)cc3c2=O)cc1C(=O)O [compound 108] | > 1000 | 11200 |
| N#Cc1cc2c(=O)n(CCOc3ccc(Cl)cc3-c3cnc(C(F)F)c(C(=O)O)c3)cnc2cn1 [compound 109] | > 1000 | 19200 |

Now from value to molecule:

| IC50 [1] [nM] | IC50 [2] [nM] | Structure (SMILES) |
| --- | --- | --- |
| < 50 | 21.3 | Cc1nc2cc(C(F)(F)F)cc(C#N)c2c(=O)n1CCOc1ccc(Cl)cc1-c1cccc(C(=O)O)c1 [compound 51] |
| 50 to 1000 | 931 | N#Cc1cc2c(=O)n(CCOc3ccc(Cl)cc3-c3ccc(C(=O)O)s3)cnc2cn1 [compound 53] |
| < 50 | 21.6 | C#Cc1c(C(=O)O)cccc1-c1cc(Cl)ccc1OCCn1c(C)nc2ccc(C(F)F)c(C#N)c2c1=O [compound 55] |
| < 50 | 12.8 | C#Cc1c(-c2cc(Cl)ccc2OCCn2c(C)nc3ccc(C(F)F)c(C#N)c3c2=O)ccnc1C(=O)O [compound 57] |
| 50 to 1000 | 50.2 | C#Cc1c(-c2cc(Cl)ccc2OCCn2c(C)nc3cc(C(F)(F)F)cc(C#N)c3c2=O)ccnc1C(=O)O [compound 58] |
| < 50 | 21.5 | Cc1nc2cc(C(F)(F)F)c(C(F)F)c(C#N)c2c(=O)n1CCOc1ccc(Cl)cc1-c1cccc(C(=O)O)c1 [compound 59] |
| < 50 | – | Cc1nc2cc(C(F)(F)F)cc(C#N)c2c(=O)n1CCOc1ccc(Cl)cc1-c1ccnc(C(=O)O)c1 [compound 60] |
| < 50 | 26.5 | Cc1nc2cc(C(F)(F)F)cc(C#N)c2c(=O)n1CCOc1ccc(Cl)cc1-c1ccnc2c(C(=O)O)csc12 [compound 61] |
| < 50 | 24.9 | Cc1nc2ccc(C(F)F)c(C#N)c2c(=O)n1CCOc1ccc(Cl)cc1-c1cccc(C(=O)O)c1 [compound 62] |
| < 50 | 25.8 | Cc1nc2cc(C#N)c(C(F)F)c(C#N)c2c(=O)n1CCOc1ccc(Cl)cc1-c1cccc(C(=O)O)c1 [compound 63] |
| 50 to 1000 | 62.5 | Cc1nc2cc(C(F)F)c(C(F)F)c(C#N)c2c(=O)n1CCOc1ccc(Cl)cc1-c1cccc(C(=O)O)c1 [compound 64] |
| < 50 | 24.1 | N#Cc1cc(C(F)(F)F)cc2nc(C(F)F)n(CCOc3ccc(Cl)cc3-c3ccnc4c(C(=O)O)csc34)c(=O)c12 [compound 65] |
| 50 to 1000 | 187 | N#Cc1cc2c(=O)n(CCOc3ccc(Cl)cc3-c3cccc(C(=O)O)c3)cnc2cn1 [compound 66] |
| 50 to 1000 | 432 | CCc1nc2cnccc2c(=O)n1CCOc1ccc(Cl)cc1-c1cccc(C(=O)O)c1 [compound 70] |
| 50 to 1000 | 83.2 | N#Cc1cccc2ncn(CCOc3ccc(Cl)cc3-c3cccc(C(=O)O)c3)c(=O)c12 [compound 73] |
| 50 to 1000 | 423 | N#Cc1ccc2ncn(CCOc3ccc(Cl)cc3-c3cccc(C(=O)O)c3)c(=O)c2c1 [compound 74] |
| 50 to 1000 | 110 | N#Cc1cc2c(=O)n(CCOc3ccc(Cl)cc3-c3csc(C(=O)O)c3)cnc2cn1 [compound 80] |
| 50 to 1000 | 287 | N#Cc1cc2c(=O)n(CCOc3ccc(Cl)cc3-c3ccc(F)c(C(=O)O)c3F)cnc2cn1 [compound 91] |
